# From US8293724B2, “Therapeutic applications of fatty acid amide hydrolase inhibitors” (The United States of America, as represented by the …, priority 2007, dated 2012)
# pKi: −log10 of the molar value.
# Columns and labels:
# [1] = system: anandamide transporter; experiment: Inhibition of the anandamide transporter (anandamide uptake); assay type: cell-based; conditions: concentrations of up to 20 μM
# [2] = target: CB1 cannabinoid receptor (Homo sapiens, UniProt P21554); experiment: Affinity for the CB1 cannabinoid receptor; assay type: binding
# [3] = Non-fasting blood glucose in SHR and WKY; conditions: AM3506 1 mg/kg i.p., n=6
# [4] = target: CB2 cannabinoid receptor (Homo sapiens, UniProt P34972); experiment: Affinity for the CB2 cannabinoid receptor; assay type: binding
# [5] = system: spontaneously hypertensive rat (SHR); experiment: Hemodynamic measurements in anesthetized spontaneously hypertensive rats; assay type: in vivo
# Experimental: Anandamide, the CB1 receptor antagonist AM251, and the anandamide transport inhibitors AM404 and OMDM-2 were obtained from Tocris; and the CB1 antagonist SR141716 and the CB2 antagonist SR144528 were from the National Institute on Drug Abuse drug supply program. Drugs were mixed in corn oil and sonicated for 5 minutes at 4° C. The mixture was added to 4 parts of Pluronic F68 (Sigma-Aldrich) solution (40 mg/mL) dissolved in water and sonicated to obtain a stable suspension for bolus intravenous injections.
# Rats were obtained from Harlan (Indianapolis, Ind.). Male, 8- to 10-month-old SHR, age-matched male Wistar-Kyoto rats (WKY), and 8- to 10-week-old male Sprague-Dawley rats were maintained on standard rat chow and water ad libitum. Dahl salt-sensitive and salt-resistant rats (male, Rapp strain, 6 weeks old) were maintained for 4 weeks on rat chow containing either 0.12% or 8% NaCl. […] Hypertension was induced in Sprague-Dawley rats by chronic infusion of angiotensin II (60 ng/min) via an osmotic minipump (Imig et al. Hypertension 2002; 39: 690-694. Rats were used 10 to 12 days after implantation of the minipump.
# For hemodynamic measurements, rats were anesthetized with pentobarbital sodium (60 mg/kg IP) and tracheotomized to facilitate breathing. Animals were placed on controlled heating pads, and core temperature, measured via a rectal probe, was maintained at 37° C. A microtip pressure-volume catheter (SPR-838; Millar Instruments) was inserted into the right carotid artery and advanced into the left ventricle (LV) under pressure control as described previously. Polyethylene cannulae (P50) were inserted into the right femoral artery and vein for measurement of mean arterial pressure (MAP) and administration of drugs, respectively. […] Heart rate, maximal LV systolic pressure, MAP, and maximal slope of systolic pressure increment (+dP/dt) were computed with a cardiac pressure-volume analysis program (PVAN2.9; Millar). Cardiac output calculated and corrected according to in vitro and in vivo volume calibrations with PVAN2.918 was normalized to body weight (cardiac index [CI]). Total peripheral resistance index (TPRI) was calculated by the equation TPRI=MAP/CI. In 3 experiments, drugs were microinjected into the fourth cerebral ventricle as described by Ramirez-Gonzalez et al. Circ Res. 1983; 53, 150-157.
# Time-dependent variables were analyzed by ANOVA followed by the Dunnett post hoc test. In other cases, the Student t test was used, as appropriate. Values with P<0.05 were considered statistically significant.
# [6] = system: conscious SHR; experiment: Blood pressure and heart rate in conscious SHR; assay type: in vivo, rat; conditions: versus dosage
# [7] = target: T1, FAAH (Rattus norvegicus, UniProt P97612); experiment: Hepatic FAAH activity in SHR and WKY after i.p. treatment; assay type: in vivo; conditions: AM3506 1 mg/kg, n=3-5
# T1 construct: from tissue; host or cells: liver of SHR and WKY rats treated in vivo
# T1 sequence (P97612 1-579): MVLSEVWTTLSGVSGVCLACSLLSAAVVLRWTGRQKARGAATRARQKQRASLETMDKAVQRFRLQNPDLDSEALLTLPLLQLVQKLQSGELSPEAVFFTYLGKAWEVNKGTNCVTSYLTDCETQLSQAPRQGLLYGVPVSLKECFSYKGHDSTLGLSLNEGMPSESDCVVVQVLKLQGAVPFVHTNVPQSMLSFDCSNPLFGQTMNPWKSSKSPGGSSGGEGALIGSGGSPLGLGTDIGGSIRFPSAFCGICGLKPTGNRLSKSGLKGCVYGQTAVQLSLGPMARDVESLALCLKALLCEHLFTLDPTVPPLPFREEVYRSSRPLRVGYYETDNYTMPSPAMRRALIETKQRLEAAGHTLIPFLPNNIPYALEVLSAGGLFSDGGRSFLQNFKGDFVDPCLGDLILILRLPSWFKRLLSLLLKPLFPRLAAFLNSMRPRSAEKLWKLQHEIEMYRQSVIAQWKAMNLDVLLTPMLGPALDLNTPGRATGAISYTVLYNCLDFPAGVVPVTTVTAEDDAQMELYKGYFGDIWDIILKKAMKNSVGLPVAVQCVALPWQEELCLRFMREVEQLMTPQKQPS
# [8] = AM3506 bolus 1 mg/kg, anesthetized SHR, FIG. 7
# Sequence of CB1 cannabinoid receptor (P21554 whole entry): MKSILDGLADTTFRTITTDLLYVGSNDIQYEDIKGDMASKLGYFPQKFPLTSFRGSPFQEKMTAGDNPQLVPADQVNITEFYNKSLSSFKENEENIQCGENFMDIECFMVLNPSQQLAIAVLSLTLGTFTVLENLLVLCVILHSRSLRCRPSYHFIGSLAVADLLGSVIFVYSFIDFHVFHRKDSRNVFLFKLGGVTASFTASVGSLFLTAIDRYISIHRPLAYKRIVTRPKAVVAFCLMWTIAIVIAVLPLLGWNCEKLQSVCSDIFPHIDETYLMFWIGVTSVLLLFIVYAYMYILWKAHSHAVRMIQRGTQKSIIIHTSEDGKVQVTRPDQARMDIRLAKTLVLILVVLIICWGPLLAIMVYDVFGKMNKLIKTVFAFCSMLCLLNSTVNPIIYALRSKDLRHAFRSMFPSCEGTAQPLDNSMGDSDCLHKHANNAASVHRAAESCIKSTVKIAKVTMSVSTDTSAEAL
# Sequence of CB2 cannabinoid receptor (P34972 whole entry): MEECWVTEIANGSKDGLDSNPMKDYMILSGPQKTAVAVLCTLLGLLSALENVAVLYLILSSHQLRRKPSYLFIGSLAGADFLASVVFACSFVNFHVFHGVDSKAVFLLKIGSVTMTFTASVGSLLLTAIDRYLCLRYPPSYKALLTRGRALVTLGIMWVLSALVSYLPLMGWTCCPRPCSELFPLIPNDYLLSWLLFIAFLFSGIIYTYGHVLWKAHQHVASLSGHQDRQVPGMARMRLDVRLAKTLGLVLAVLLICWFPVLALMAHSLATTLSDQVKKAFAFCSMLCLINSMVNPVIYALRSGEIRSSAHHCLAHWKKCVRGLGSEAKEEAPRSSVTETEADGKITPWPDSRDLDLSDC
smiles,measurement,setting,value
O=S(=O)(F)CCCCCc1ccc(O)cc1 [AM3506],inhibition of the anandamide transporter,[1],did not inhibit
same,pKi,[2],6.72
same,non-fasting blood glucose after treatment,"[3]; SHR, from 97.8±5.6",97.8 ± 2.9 mg/dL
same,non-fasting blood glucose after treatment,"[3]; WKY, from 114.5±5.3",108.2 ± 4.5 mg/dL
same,pKi,[4],5.24
same,lowering of blood pressure,"[5]; AM3506 0.3 mg/kg i.v., SHR",90 mmHg
same,dose equivalence in producing hypotension,[5]; AM3506 1 mg/kg versus URB597 10 mg/kg,equieffective with 10 mg/kg URB597
same,cardiac contractility,[5]; [8],significantly decreases
same,cardiac output,[5]; [8],reduced
same,left ventricular end systolic pressure (LVESP),[5]; [8],decreases
same,maximal slope of the systolic pressure increment (dP/dt),[5]; [8],decrease
same,stroke volume,[5]; [8],reduced
same,blood pressure effect,"[5]; AM3506 intravenously 1 mg/kg in 50 μl, anesthetized SHR, FIG. 1",hypotensive effect
same,MBP,"[6]; n=4, FIG. 4A",decrease MBP
same,heart rate,"[6]; n=4, FIG. 5A",moderate bradycardia only at 1 mg/kg dose
same,reduction of hepatic FAAH activity,[7]; SHR,11.1±0.04%
same,reduction of hepatic FAAH activity,[7]; WKY,6.7±0.2%
